# Test results: ChEMBL document CHEMBL4033623, “Synthesis of xanthone derivatives and studies on the inhibition against cancer cells growth and synergistic combinations of them” (Eur J Med Chem, 2017)
# The source made the active and inactive calls. The rule behind the calls is not given here.
# How the values were obtained:
# COLO 320 [1] = test: Antiproliferative activity against human COLO320 cells after 48 hrs by CCK8 assay; format: functional, cell-based; settings: COLO 320, 48 h
# HepG2 [2] = test: Antiproliferative activity against human HepG2 cells after 48 hrs by CCK8 assay; format: functional, cell-based; settings: HepG2, 48 h
# K562 [3] = test: Antiproliferative activity against human K562 cells after 48 hrs by CCK8 assay; format: functional, cell-based; settings: K562, 48 h
# MCF7 [4] = test: Antiproliferative activity against human MCF7 cells after 48 hrs by CCK8 assay; format: functional, cell-based; settings: MCF7, 48 h
# MDA-MB-231 [5] = test: Antiproliferative activity against human MDA-MB-231 cells after 48 hrs by CCK8 assay; format: functional, cell-based; settings: MDA-MB-231, 48 h
# HepG2 [6] = test: Synergistic antiproliferative activity against human HepG2 cells at compound to DMXAA mol ratio of 1:1 after 48 hrs by CCK8 assay; format: functional, cell-based; settings: HepG2, 48 h
# COLO 320 [7] = test: Synergistic antiproliferative activity against human COLO320 cells at compound to DMXAA mol ratio of 1:1 after 48 hrs by CCK8 assay; format: functional, cell-based; settings: COLO 320, 48 h
# K562 [8] = test: Synergistic antiproliferative activity against human K562 cells at compound to DMXAA mol ratio of 1:1 after 48 hrs by CCK8 assay; format: functional, cell-based; settings: K562, 48 h
# MDA-MB-231 [9] = test: Synergistic antiproliferative activity against human MDA-MB-231 cells at compound to DMXAA mol ratio of 1:1 after 48 hrs by CCK8 assay; format: functional, cell-based; settings: MDA-MB-231, 48 h
# MCF7 [10] = test: Synergistic antiproliferative activity against human MCF7 cells at compound to DMXAA mol ratio of 1:1 after 48 hrs by CCK8 assay; format: functional, cell-based; settings: MCF7, 48 h
# MDA-MB-231 [11] = test: Cell cycle arrest in human MDA-MB-231 cells assessed as increase in accumulation at G2/M phase at 48 uM after 48 hrs by propidium iodide staining based flow cytometric method relative to control; format: functional
# MDA-MB-231 [12] = test: Induction of apoptosis in human MDA-MB-231 cells assessed as increase in cleaved caspase-3 expression at 24 to 96 uM after 48 hrs by Western blot analysis; format: functional, cell-based
# MDA-MB-231 [13] = test: Decrease in caspase-3 level in human MDA-MB-231 cells at 24 to 96 uM after 48 hrs by Western blot analysis; format: functional, cell-based
# MDA-MB-231 [14] = test: Induction of apoptosis in human MDA-MB-231 cells assessed as late apoptotic cells at 24 uM after 48 hrs by Annexin-V/FITC/PI staining based flow cytometry (reference value: 1.18 %); format: functional
# MDA-MB-231 [15] = test: Induction of apoptosis in human MDA-MB-231 cells assessed as necrotic cells at 48 uM after 48 hrs by Annexin-V/FITC/PI staining based flow cytometry (reference value: 10.01 %); format: functional
# MDA-MB-231 [16] = test: Induction of apoptosis in human MDA-MB-231 cells assessed as early apoptotic cells at 96 uM after 48 hrs by Annexin-V/FITC/PI staining based flow cytometry (reference value: 0.03 %); format: functional
# MDA-MB-231 [17] = test: Induction of apoptosis in human MDA-MB-231 cells assessed as necrotic cells at 96 uM after 48 hrs by Annexin-V/FITC/PI staining based flow cytometry (reference value: 10.01 %); format: functional
# MDA-MB-231 [18] = test: Induction of apoptosis in human MDA-MB-231 cells assessed as viable cells at 96 uM after 48 hrs by Annexin-V/FITC/PI staining based flow cytometry (reference value: 88.78 %); format: functional; settings: MDA-MB-231, 48 h, read-out: Activity
# MDA-MB-231 [19] = test: Increase in p53 level in human MDA-MB-231 cells at 24 to 96 uM after 48 hrs by Western blot analysis; format: functional, cell-based
# MDA-MB-231 [20] = test: Induction of apoptosis in human MDA-MB-231 cells assessed as increase in cleaved PARP level at 24 to 96 uM after 48 hrs by Western blot analysis; format: functional, cell-based
# MDA-MB-231 [21] = test: Induction of apoptosis in human MDA-MB-231 cells assessed as viable cells at 48 uM after 48 hrs by Annexin-V/FITC/PI staining based flow cytometry (reference value: 88.78 %); format: functional; settings: MDA-MB-231, 48 h, read-out: Activity
# MDA-MB-231 [22] = test: Induction of apoptosis in human MDA-MB-231 cells assessed as viable cells at 24 uM after 48 hrs by Annexin-V/FITC/PI staining based flow cytometry (reference value: 88.78 %); format: functional; settings: MDA-MB-231, 48 h, read-out: Activity
# MDA-MB-231 [23] = test: Induction of apoptosis in human MDA-MB-231 cells assessed as early apoptotic cells at 24 uM after 48 hrs by Annexin-V/FITC/PI staining based flow cytometry (reference value: 0.03 %); format: functional
# MDA-MB-231 [24] = test: Induction of apoptosis in human MDA-MB-231 cells assessed as necrotic cells at 24 uM after 48 hrs by Annexin-V/FITC/PI staining based flow cytometry (reference value: 10.01 %); format: functional
# MDA-MB-231 [25] = test: Decrease in MDM2 level in human MDA-MB-231 cells at 24 to 96 uM after 48 hrs by Western blot analysis; format: functional, cell-based
# MDA-MB-231 [26] = test: Induction of apoptosis in human MDA-MB-231 cells after 48 hrs by Annexin-V/FITC/PI staining based flow cytometry; format: functional, cell-based
# MDA-MB-231 [27] = test: Induction of apoptosis in human MDA-MB-231 cells assessed as late apoptotic cells at 48 uM after 48 hrs by Annexin-V/FITC/PI staining based flow cytometry (reference value: 1.18 %); format: functional
# MDA-MB-231 [28] = test: Induction of apoptosis in human MDA-MB-231 cells assessed as late apoptotic cells at 96 uM after 48 hrs by Annexin-V/FITC/PI staining based flow cytometry (reference value: 1.18 %); format: functional
# MDA-MB-231 [29] = test: Induction of apoptosis in human MDA-MB-231 cells assessed as early apoptotic cells at 48 uM after 48 hrs by Annexin-V/FITC/PI staining based flow cytometry (reference value: 0.03 %); format: functional
# MDA-MB-231 [30] = test: Decrease in caspase-9 level in human MDA-MB-231 cells at 24 to 96 uM after 48 hrs by Western blot analysis; format: functional, cell-based
Compound,IC50 (COLO 320 [1]),IC50 (HepG2 [2]),IC50 (K562 [3]),IC50 (MCF7 [4]),IC50 (MDA-MB-231 [5]),other results
O=c1c2cc(O)ccc2oc2cc(O)c(O)cc12,93.2 µM,63.3 µM,73.5 µM,28.1 µM,23.5 µM,–
Cc1ccc2c(=O)c3cccc(O)c3oc2c1,53.7 µM,93.8 µM,93.5 µM,83.4 µM,43.8 µM,–
O=c1c2cc(Cl)ccc2oc2c(O)cccc12,87.5 µM,37.3 µM,52.1 µM,13 µM,57.1 µM,–
COc1cc(OC)c2c(=O)c3ccc(O)cc3oc2c1,12.1 µM,8.7 µM,29.1 µM,11.2 µM,9.6 µM,IC50 (HepG2 [6]): 8.43 µM; IC50 (COLO 320 [7]): 10.2 µM; IC50 (K562 [8]): 26.2 µM; IC50 (MDA-MB-231 [9]): 9.13 µM; IC50 (MCF7 [10]): 14.1 µM
O=c1c2ccccc2oc2ccc(Cl)cc12,96.7 µM,62 µM,> 200 µM,> 200 µM,69.4 µM,–
O=c1c2ccc(O)cc2oc2cc(O)ccc12,37.7 µM,61.7 µM,31.2 µM,91.3 µM,31.7 µM,–
O=c1c2ccccc2oc2cc(O)ccc12,> 200 µM,85.3 µM,> 200 µM,121 µM,93 µM,–
O=c1c2cc(O)c(O)cc2oc2cc(O)cc(O)c12,23 µM,23.7 µM,13.1 µM,43.2 µM,23.6 µM,–
O=c1c2cc(O)c(O)cc2oc2cccc(O)c12,85.1 µM,83.8 µM,156 µM,101 µM,65.9 µM,–
"O=c1c2ccccc2oc2c(O)c(O)ccc12 [3,4-DIHYDROXYXANTHONE]",73 µM,89.7 µM,103 µM,93.2 µM,124 µM,–
O=c1c2cc(O)ccc2oc2ccc(O)cc12 [EUXANTHONE],91.2 µM,> 200 µM,73.5 µM,128 µM,83.5 µM,–
O=c1c2cc(Cl)ccc2oc2cc(O)cc(O)c12,15.2 µM,3.2 µM,5.2 µM,1.2 µM,5.2 µM,IC50 (HepG2 [6]): 4.22 µM; IC50 (COLO 320 [7]): 9.15 µM; IC50 (K562 [8]): 2.27 µM; IC50 (MDA-MB-231 [9]): 3.1 µM; IC50 (MCF7 [10]): 1.15 µM
O=c1c2cc(O)ccc2oc2c(O)cccc12,53.7 µM,23.8 µM,43.5 µM,13.4 µM,43.8 µM,–
Cc1ccc2c(=O)c3c(O)cc(O)cc3oc2c1,27.1 µM,12.7 µM,5.1 µM,4.2 µM,8.6 µM,IC50 (HepG2 [6]): 8.75 µM; IC50 (COLO 320 [7]): 22.8 µM; IC50 (K562 [8]): 4.65 µM; IC50 (MDA-MB-231 [9]): 2.63 µM; IC50 (MCF7 [10]): 2.06 µM
O=c1c2ccc(O)cc2oc2c(O)c(O)ccc12,77.3 µM,87.3 µM,82.3 µM,43.7 µM,87.3 µM,–
O=c1c2ccc(O)cc2oc2cc(O)cc(O)c12,105 µM,124 µM,55.6 µM,112 µM,55.6 µM,–
O=c1c2ccc(O)cc2oc2c(O)cccc12,55.1 µM,23.7 µM,45.1 µM,41.9 µM,95.6 µM,–
O=c1c2cc(O)ccc2oc2cc(O)cc(O)c12,> 200 µM,> 200 µM,106 µM,31.2 µM,25.1 µM,–
O=c1c2cccc(O)c2oc2cc(O)cc(O)c12,23.7 µM,33.8 µM,28.5 µM,23.4 µM,23.8 µM,–
Cc1ccc2c(=O)c3cccc(CC(=O)O)c3oc2c1C [VADIMEZAN],39.5 µM,100 µM,57.4 µM,54.4 µM,48.4 µM,Activity (MDA-MB-231 [11]): 25%; Activity (MDA-MB-231 [12]): Active; Activity (MDA-MB-231 [13]): Active; Activity (MDA-MB-231 [14]): 6.65%; Activity (MDA-MB-231 [15]): 14.88%; Activity (MDA-MB-231 [16]): 4.48%; Activity (MDA-MB-231 [17]): 21.83%; viability at 96 µM (MDA-MB-231 [18]): 58.8%; Activity (MDA-MB-231 [19]): Active; Activity (MDA-MB-231 [20]): Active; viability at 48 µM (MDA-MB-231 [21]): 65.9%; viability at 24 µM (MDA-MB-231 [22]): 80.7%; Activity (MDA-MB-231 [23]): 0.53%; Activity (MDA-MB-231 [24]): 12.09%; Activity (MDA-MB-231 [25]): Active; Activity (MDA-MB-231 [26]): Dose-dependent effect; Activity (MDA-MB-231 [27]): 17.03%; Activity (MDA-MB-231 [28]): 14.93%; Activity (MDA-MB-231 [29]): 2.22%; Activity (MDA-MB-231 [30]): Active
O=c1c2ccc(O)cc2oc2ccc(O)cc12,31.5 µM,52.2 µM,88.9 µM,92.4 µM,32.4 µM,–
COc1cc(OC)c2c(=O)c3c(O)cccc3oc2c1,25.9 µM,83.8 µM,25.1 µM,21.1 µM,25.9 µM,–

# Second part, led by results:
IC50 (COLO 320 [1]),IC50 (HepG2 [2]),IC50 (K562 [3]),IC50 (MCF7 [4]),IC50 (MDA-MB-231 [5]),Compound,other results
55.1 µM,43.7 µM,45.1 µM,41.2 µM,45.6 µM,O=c1c2ccc(O)cc2oc2ccc(Cl)cc12,–
102 µM,82.6 µM,> 200 µM,22.9 µM,12.5 µM,O=c1c2cc(Br)ccc2oc2c(O)cccc12,–
15.1 µM,11.7 µM,45.1 µM,11.2 µM,11.6 µM,O=c1c2ccccc2oc2cc(O)cc(O)c12,–
11.5 µM,31.2 µM,19.4 µM,21.4 µM,11.4 µM,COc1cc(OC)c2c(=O)c3cc(Cl)ccc3oc2c1,–
35.7 µM,32.7 µM,34.2 µM,34.3 µM,34.7 µM,COc1cc(O)c2c(=O)c3c(OC)cccc3oc2c1,–
93.7 µM,> 200 µM,> 200 µM,23.4 µM,> 200 µM,COc1ccc2c(=O)c3cc(O)ccc3oc2c1,–
63.1 µM,63.8 µM,53.5 µM,104 µM,83.2 µM,O=c1c2cc(Br)ccc2oc2c(O)c(O)ccc12,–
36.4 µM,55.3 µM,60.1 µM,31.6 µM,33 µM,O=c1c2c(O)cccc2oc2cc(O)cc(O)c12,–
> 200 µM,> 200 µM,62 µM,53.1 µM,67.1 µM,O=c1c2cc(Cl)ccc2oc2cccc(O)c12,–
83.1 µM,> 200 µM,63.1 µM,> 200 µM,53.1 µM,O=c1c2cc(O)ccc2oc2c(O)c(O)ccc12,–
77.1 µM,87.1 µM,52.1 µM,43.1 µM,87.1 µM,COc1cc(OC)c2c(=O)c3cc(Br)ccc3oc2c1,–
